Reference: patent US10551393B1, “High-throughput, in vivo screening platform for modulators of Apolipoprotein B” (THE JOHNS HOPKINS UNIVERSITY, priority 2016, dated 2020)
“Also recorded” adds a separate entry of the source.

Columns and labels:
[1] = tested on: ApoB-NanoLuc® luciferase reporter; assay: ApoB-NanoLuc luciferase reporter assay in transgenic zebrafish larvae (primary screen); assay type: in vivo
Experimental: Of the two existing inhibitors of ApoB, lomitapide is the most appropriate for use as a proof of principle because it is a small molecule. Conversely, mipomersen is an injectable antisense biologic that is not suitable for comparison to small-molecule inhibitors and cannot be used a high-throughput manner. Larval zebrafish were treated with serial dilutions of the lomitapide for 36 hours from 2.5 to 4 dpf.
There are detailed protocols for the development and execution of a high-throughput screen using live vertebrate zebrafish (26, 27). The high-throughput screen uses transgenic zebrafish that carry both an engineered luciferase reporter (NanoLuc® luciferase) fused to ApoB which serves as the primary readout, and a second ubiquitously expressed firefly luciferase reporter that is used as an internal control. Transgenic larvae are raised to 3 days post-fertilization (dpf) and automatically sorted and dispensed into 96-well plates containing various dilutions of test compound. Following 48-hour incubation with test and control compounds, the zebrafish are homogenized and assayed sequentially for Firefly and NanoLuc® luciferase signal using the automated robotics platform and plate reader. Hit-calling software is used to select putative hits, which are validated through repetition and orthogonal screening. The first iteration of the screen uses a modest-sized library (3,000 compounds), and empirical determination of the optimal sample size and number of titration points required for screening enables an increase in throughput for the following iteration of the screen, which screens a 30,000 compound library.
Statistical resampling of positive control treatments can be used to estimate the appropriate sample size for HTS assays given type I and type II error rate thresholds and a desired cutoff for effect size (27). Assuming a type II error rate of 0.01 and setting the hit selection cutoff to 50% the magnitude of positive control treatment generates a log-linear relationship between sample size and type I error rate. […] Besides serving as a metric for assay quality, the SSMD score can also be used to determine hit cutoff criteria. This statistical test compares the averages between the negative control and each experimental sample, and then adjusts this difference based on the median absolute deviation (MAD) of each sample, such that samples with high variability are penalized and produce a poor SSMD score even if there is a large difference between the means. In positive control treatments, lomitapide produced an SSMD score of −4.5, reflecting a very strong control assay. The scaling factor formula can be used to determine the SSMD cutoff based on the desired magnitude relative to the positive control. A compound with a 50% effect size relative to MTP was chosen as a physiologically relevant effect size, which would produce an SSMD score of −2.7.
Day 1: Embryo production and collection—zebrafish homozygous for the ApoB-NanoLuc® luciferase and ubi:Fluc reporters are induced to spawn using custom mass-breeding chambers. Eggs are collected hourly from 9 AM to 2 PM. Embryos are maintained in petri dishes at a density of 5 fish/mL of embryo medium (E3). Day 2: Raising embryos—Embryos are maintained in E3 (1 dpf). Day 3: Raising embryos and preparing drug plates—Embryos are maintained in embryo medium (2 dpf). […]

[2] = tested on: firefly luciferase internal control reporter; assay: Firefly luciferase internal control (counter-screen) of the dual luciferase assay; assay type: in vivo; details: preliminary screen; cutoff SSMD ±2.4
Source text: The primary screen seeks to identify compounds that lower ApoB levels, which is likely to identify numerous false positives that are cytotoxic or inhibit fundamental cellular processes such as transcription or translation. The inclusion of a counter-screen helps identify compounds that have strong effects on the target phenotype without causing major disruptions in other cellular processes. The pd75 zebrafish line carries a ubiquitous promoter driving firefly luciferase as well as the mCherry fluorescent reporter, which can be used to detect developmental delay or cytotoxicity in any organ. […]
The Nano-Glo® dual luciferase assay provides the means to independently measure firefly and NanoLuc® luciferase in a single reaction enabling parallel measurement of the primary screen reaction and counter-screen reaction in a high-throughput compatible add-and-read format. Consistent measurement of luciferase activity requires homogenous sample inputs, so we have developed homogenization methods using a microplate sonicator that exceeds the throughput capacity of the plate reader.
The NanoLuc® luciferase reporter uses a different substrate than firefly luciferase, allowing a second luciferase reporter to be measured in parallel as an internal control. […]

[3] = tested on: ApoB-containing lipoprotein particles; assay: In-gel luciferase assay for lipoprotein size distribution; assay type: in vivo, zebrafish; details: for lipoprotein particle size distribution: larval zebrafish homogenate, polyacrylamide gel, in-gel luciferase
Experimental: To evaluate whether introduction of the luciferase tag disrupted protein function, individual larvae carrying the reporter construct were homogenized and lipoprotein classes were separated on a 3% PAGE gel (see Singh et al. Lipids in Health and Disease 7:47, 2008). An in-gel luciferase assay was then performed to detect the NanoLuc® luciferase reporter present in the gel (FIG. 2A), and compared to the results obtained from adult zebrafish serum that was stained using lipophilic fluorescent dye (FIG. 2B). Encouragingly, essentially all of the signal was present in the expected VLDL, IDL, and LDL portions of the gel, which is consistent with the primary role of ApoB as an obligate structural component of lipid-rich lipoproteins. Additionally, this method has sufficient sensitivity and resolution to detect LDL subclasses, which are seen as deviations from the normal distribution in the plot profile. […] Additionally, signal from the ApoB-luciferase fusion is responsive to known chemical and physiological modulators of ApoB (MTP inhibition and fasting).
The in-gel luciferase assay developed in our lab provides the opportunity to rapidly and sensitively detect changes in lipoprotein size distribution using individual larval zebrafish. Following a week of high-fat diet with or without treatment of test compound, larval zebrafish are homogenized and lipoproteins are separated on a 3% native PAGE gel and imaged using the in-gel luciferase reporter. This enables rapid assessment of lead compounds on effects of the potentially clinically important lipoprotein size distribution phenotype. […]
In addition to its utility as a high-throughput compatible readout for measuring levels of Apolipoprotein B, the described ApoB-NanoLuc® luciferase reporter can also be used to measure the size distribution and localization of ApoB-containing particles in zebrafish larvae. Lipoproteins separated using polyacrylamide gel electrophoresis can be sensitively detected in individual larval homogenates by immersing the gel in the NanoLuc® luciferase substrate. […]

ApoB = details: cited from earlier work

## O=C(NC1CCN(CCCCC2(C(=O)NCC(F)(F)F)c3ccccc3-c3ccccc32)CC1)c1ccccc1-c1ccc(C(F)(F)F)cc1 [lomitapide]
[1]; larval zebrafish, serial dilutions, 36 hours from 2.5 to 4 dpf
  reporter activity relative to vehicle-treated controls: dose-dependent reduction
[1]; positive control treatments, hit cutoff −2.7
  SSMD score (ApoB-NanoLuc): −4.5
[1]; preliminary screen, dose-response, hit selection cutoff −2.7
  NanoLuc luciferase levels: dose-dependent decrease
[1]; preliminary validation screen of lipid/lipoprotein metabolism compounds
  change in ApoB (ApoB-NanoLuc): significant change in ApoB
[1]; transgenic larvae
  ApoB-NanoLuc luciferase levels in transgenic larvae: significantly lowered
[2]
  effect on internal control reporter (firefly luciferase): without affecting the internal control reporter
[3]; acute treatment, larval zebrafish, 3% native PAGE
  ApoB levels: significant reduction
[3]
  lipoprotein particle size distribution: unable to create large lipoprotein particles; also recorded: particle size and number are greatly reduced; also recorded: did not have large lipoprotein particles
[3]; listed as Lomitapide
  lipoprotein particle size distribution: induced the formation of very small lipoprotein particles
ApoB
  ApoB levels in humans: significant reduction
